According to ChEMBL document CHEMBL4811267, “Structurally Diverse Diterpenoids from the Roots of Salvia deserta Based on Nine Different Skeletal Types” (J Nat Prod, 2021):

Key:
SW480 = assay: Cytotoxicity against human SW480 cells assessed as reduction in cell viability after 48 hrs by MTS assay; assay type: functional, cell-based; details: SW480, 48 h
BEAS-2B = assay: Cytotoxicity against human BEAS2B cells assessed as reduction in cell viability after 48 hrs by MTS assay; assay type: cell-based
SMMC-7721 = assay: Cytotoxicity against human SMMC-7721 cells assessed as reduction in cell viability after 48 hrs by MTS assay; assay type: functional, cell-based; details: SMMC-7721, 48 h
A549 = assay: Cytotoxicity against human A549 cells assessed as reduction in cell viability after 48 hrs by MTS assay; assay type: functional, cell-based; details: A549, 48 h
HL-60 = assay: Cytotoxicity against human HL60 cells assessed as reduction in cell viability after 48 hrs by MTS assay; assay type: functional, cell-based; details: HL-60, 48 h
MCF7 = assay: Cytotoxicity against human MCF7 cells assessed as reduction in cell viability after 48 hrs by MTS assay; assay type: functional, cell-based; details: MCF7, 48 h

SMILES	IC50 (SW480)	IC50 (BEAS-2B)	IC50 (SMMC-7721)	IC50 (A549)	IC50 (HL-60)	IC50 (MCF7)
CC(C)c1cc2c(cc1O)C=C[C@H]1C(C)(C)CCC[C@]21C	> 10 µM	> 10 µM	> 10 µM	> 10 µM	> 10 µM	> 10 µM
CC(C)C1=C[C@]23CC[C@@H]4C(=CCCC4(C)C)[C@H]2CC(=O)[C@]3(O)C1=O	> 10 µM	> 10 µM	> 10 µM	> 10 µM	> 10 µM	> 10 µM
CC(C)c1cc(C(=O)O)c2c(c1O)O[C@]1(O)C(C)(C)[C@@H](O)CC[C@]21C	> 10 µM	> 10 µM	> 10 µM	> 10 µM	> 10 µM	> 10 µM
COc1c(C(C)C)cc2c(c1O)[C@@]1(C)CCCC(C)(C)[C@@H]1CC2=O [CRYPTOJAPONOL]	> 10 µM	> 10 µM	> 10 µM	> 10 µM	> 10 µM	> 10 µM
CC(C)c1cc2c(cc1O)[C@@]1(C)CCCC(C)(C)[C@@H]1CC2=O [SUGIOL]	> 10 µM	> 10 µM	> 10 µM	> 10 µM	> 10 µM	> 10 µM
CC(C)c1cc(C(=O)O)c2c(c1O)O[C@]1(O)[C@@](C)(CO)CCC[C@]21C	> 10 µM	> 10 µM	> 10 µM	> 10 µM	> 10 µM	> 10 µM
CC(C)c1c(O)c(C=O)c2c(c1O)OC(O)[C@H]1C(C)(C)CCC[C@]21C (some centres undefined)	> 10 µM	> 10 µM	> 10 µM	> 10 µM	> 10 µM	> 10 µM
CC(C)C1=C(O)C(=O)C2=C(C=C[C@H]3C(C)(C)CCC[C@]3(C)O2)C1=O	> 10 µM	> 10 µM	> 10 µM	> 10 µM	> 10 µM	> 10 µM
CC(C)c1c(O)c(O)c2c(c1C=O)[C@H](O)[C@H]1C(C)(C)CCC[C@]21C	> 10 µM	> 10 µM	> 10 µM	> 10 µM	> 10 µM	> 10 µM
CC(C)c1cc2c(cc1O)[C@@]1(C)CC[C@H](O)C(C)(C)[C@@H]1CC2 [HINOKIOL]	> 10 µM	> 10 µM	> 10 µM	> 10 µM	> 10 µM	> 10 µM
CC(C)c1cc2c(c(O)c1O)[C@@]1(C)CCCC(C)(C)C1=CC2=O [SALVINOLONE]	> 10 µM	> 10 µM	> 10 µM	> 10 µM	> 10 µM	> 10 µM
CC(C)c1cc2c(cc1O)[C@@]1(C)C[C@H](O)CC(C)(C)[C@@H]1CC2	> 10 µM	> 10 µM	> 10 µM	> 10 µM	> 10 µM	> 10 µM
CC(C)c1cc2c(cc1O)C(=O)C[C@H]1C(C)(C)CCC[C@]21C	> 10 µM	> 10 µM	> 10 µM	> 10 µM	> 10 µM	> 10 µM
CC(C)C1=C(O)C(=O)C2=C(C1=O)[C@H](O)[C@H]1C(C)(C)CCC[C@]21C	> 10 µM	> 10 µM	> 10 µM	> 10 µM	> 10 µM	> 10 µM
CC(C)c1cc2c(c(O)c1O)[C@@]1(C)CCCC(C)(C)[C@@H]1CC2=O [DEMETHYLCRYPTOJAPONOL]	> 10 µM	> 10 µM	> 10 µM	> 10 µM	> 10 µM	> 10 µM
CC(C)C1=C(O)C(=O)C2=C(C=C3C(C)(C)CCC[C@@]32C)C1=O	> 10 µM	> 10 µM	> 10 µM	> 10 µM	> 10 µM	> 10 µM
CC(C)c1cc2c(c(O)c1O)[C@@]1(C)CCC[C@](C)(CO)C1=C(O)C2=O	> 10 µM	> 10 µM	> 10 µM	> 10 µM	> 10 µM	> 10 µM
Cc1ccc2cc(C(C)C)c(O)c3c2c1C(=O)CCC(C)(C)O3	> 10 µM	> 10 µM	> 10 µM	> 10 µM	> 10 µM	> 10 µM
CO[C@@H]1C2=C(C(=O)C(O)=C(C(C)C)C2=O)[C@@]2(C)CCCC(C)(C)[C@H]12	> 10 µM	> 10 µM	> 10 µM	> 10 µM	> 10 µM	> 10 µM
CC(C)c1cc(C=O)c2c(c1O)OC(O)[C@H]1C(C)(C)CCC[C@]21C (some centres undefined)	> 10 µM	> 10 µM	> 10 µM	> 10 µM	> 10 µM	> 10 µM
CC(C)c1cc2c(c(O)c1O)[C@@]1(C)CCCC(C)(C)[C@@H]1[C@H](O)C2=O	> 10 µM	> 10 µM	> 10 µM	> 10 µM	> 10 µM	> 10 µM
COc1c(O)c2c(c(C=O)c1C(C)C)[C@H](O)[C@H]1C(C)(C)CCC[C@]21C	> 10 µM	> 10 µM	> 10 µM	> 10 µM	> 10 µM	> 10 µM
CC(C)c1cc2c(c(O)c1O)[C@@]1(C)CCCC(C)(C)C1=C(O)C2=O [14-DEOXYCOLEON U]	> 10 µM	> 10 µM	9.2 µM	8.4 µM	6.2 µM	5.6 µM
CC(C)c1cc(O)c2c(c1O)C(=O)C[C@H]1C(C)(C)CCC[C@]21C	> 10 µM	> 10 µM	> 10 µM	> 10 µM	> 10 µM	> 10 µM
